Source: paper PMC5578959, “Selective LRRK2 kinase inhibition reduces phosphorylation of endogenous Rab10 and Rab12 in human peripheral mononuclear blood cells” (Scientific Reports, 2017)

Legend:
RAB12 = experiment: Phosphoproteomic analysis, immune stimulated human PBMCs; format: cell-based; conditions: 100 nM, 24 hrs
Protocol: (§1) Freshly isolated PBMCs were plated at a density ranging from 7–20 × 10^6 cells in 10 cm petri dishes (Costar 3262) in RPMI-1640 media (Gibco 61870–010) supplemented with 10% non-heat inactivated FBS, 5 ml Antimycotic (Sigma cat:5965) with or without an immune stimulation cocktail consisting of 400 nM phorbol 12-myristate 13-acetate (PMA) and 100 ng/ml interferon-γ (INF-γ). After 48 hrs in culture the cultures were added a fifth of the volume media containing 5x the final concentration of the respective LRRK2 inhibitor with or without PMA and interferon-γ. […] Approximately, 400 µg of protein from each individual donor was needed in order to run the full PBMC stimulation and inhibition study with subsequent global proteome and phosphoproteome (PhosphoScout®) analyses. […]
(§2) Upon the respective treatments cells were washed with cold PBS, snap-frozen in liquid N2 and shipped to Evotec on dry-ice. […] Cell lysis was performed in ice-cold lysis buffer (8 M urea, 50 mM Tris pH 8.2, 10 mM sodium pyrophosphate, 5 mM EDTA, 5 mM EGTA, 10 mM sodium fluoride, 10 mM β-glycerophosphate, 10 mM sodium orthovanadate, phosphatase inhibitor cocktail 2 and 3 (Sigma, 1:100 (v/v)) and Complete protease inhibitor cocktail tablets (Roche). Cell extracts were sonicated on ice and the cell debris was removed by centrifugation before protein concentrations were determined (Bradford, BioRad). […]

RAB10 = experiment: as above; format: cell-based; conditions: 100 nM, 24 hrs
Protocol: as §1, §2

LRRK2 = experiment: Global proteome analysis, immune stimulated human PBMCs; format: cell-based; conditions: 100 nM, 24 hrs, not statistically significant (q-value: 0.08)
Protocol: as §1, §2

[1] = tested on: Regulator of telomere elongation helicase 1 (RTEL1); experiment: as above; format: cell-based; conditions: 100 nM, 24 hrs
Protocol: as §1, §2

p70S6Kb = tested on: T1, p70S6Kb; experiment: KiNativ profiling in human PBMCs; format: binding; conditions: Lys2
T1 construct: purchased ActivX Technologies (KiNativ)

MARK3, MARK4 = experiment: KiNativ profiling in human PBMCs; format: binding; conditions: Lys1
EphA1 = tested on: T2, EphA1; experiment: KiNativ profiling in human PBMCs; format: binding; conditions: Activation Loop
T2 construct: purchased ActivX Technologies (KiNativ)

MPSK1 = tested on: T3, MPSK1; experiment: KiNativ profiling in human PBMCs; format: binding; conditions: Lys1
T3 construct: purchased ActivX Technologies (KiNativ)

GPRK5 = tested on: T4, GPRK5; experiment: KiNativ profiling in human PBMCs; format: binding; conditions: Lys2
T4 construct: purchased ActivX Technologies (KiNativ)

NEK3 = tested on: T5, NEK3; experiment: KiNativ profiling in human PBMCs; format: binding; conditions: Activation Loop
T5 construct: purchased ActivX Technologies (KiNativ)

CK2a1 = tested on: T6, CK2a1; experiment: KiNativ profiling in human PBMCs; format: binding; conditions: Protein Kinase Domain
T6 construct: purchased ActivX Technologies (KiNativ)

MST4 = tested on: T7, MST4; experiment: KiNativ profiling in human PBMCs; format: binding; conditions: Lys1
T7 construct: purchased ActivX Technologies (KiNativ)

Compound: Cc1cccc(-c2cc(Nc3ccn(C)n3)nc3[nH]cc(C#N)c23)c1 [Lu AF58786]
- reduced level of phosphorylation, Ser106 on Rab12 (RAB12): approximately 2 fold
- reduced level of phosphorylation, Thr73 on Rab10 (RAB10): approximately 2 fold
- LRRK2 down-regulated on the protein level (LRRK2): approximately 1.7 fold
- RTEL1 expression level downregulated [1]: 2 fold

Compound: Cn1cc(-c2c[nH]c3ncnc(N4CCOCC4)c23)cc1C#N [PFE-360]
- % Inhibition (p70S6Kb; 0.1µM): -6.9%
- % Inhibition (p70S6Kb; 1µM): 10.8%
- % Inhibition (MARK3, MARK4; 0.1µM): 0.7%
- % Inhibition (MARK3, MARK4; 1µM): 3.6%
- % Inhibition (EphA1; 0.1µM): -12.8%
- % Inhibition (EphA1; 1µM): -26.9%
- % Inhibition (MPSK1; 0.1µM): 5.5%
- % Inhibition (MPSK1; 1µM): -27.6%
- % Inhibition (GPRK5; 0.1µM): 19.3%
- % Inhibition (GPRK5; 1µM): 1.5%
- % Inhibition (NEK3; 0.1µM): -10.8%
- % Inhibition (NEK3; 1µM): 1.2%
- % Inhibition (CK2a1; 0.1µM): -27.7%
- % Inhibition (CK2a1; 1µM): -26.5%
- % Inhibition (MST4; 0.1µM): -26.3%
- % Inhibition (MST4; 1µM): -30%
